Experiment: mn = molality of the nth substance listed, in mol/kg
Conditions: Liquid, Vibrating tube method

[Br-].[Br-].[Zn+2] [zinc bromide] + CCO
Conditions	mass density [kg/m3]
293.13 K, 1123 kPa, m1 = 0.4384	858.07
293.13 K, 1223 kPa, m1 = 0.9305	929.75
293.13 K, 5128 kPa, m1 = 0.4384	861.43
293.13 K, 9704 kPa, m1 = 0.4384	865.15
293.13 K, 9924 kPa, m1 = 0.9305	937.03
293.14 K, 1141 kPa, m1 = 1.887	1060.17
293.14 K, 4877 kPa, m1 = 0.9305	932.86
293.14 K, 5033 kPa, m1 = 1.887	1063.5
293.14 K, 5064 kPa, m1 = 0.3043	841.35
293.14 K, 9847 kPa, m1 = 1.887	1067.49
293.14 K, 10023 kPa, m1 = 0.05681	807.27
293.14 K, 14682 kPa, m1 = 0.4384	869.05
293.14 K, 14840 kPa, m1 = 0.9305	940.94
293.14 K, 14855 kPa, m1 = 1.887	1071.5
293.14 K, 20011 kPa, m1 = 0.9305	944.89
293.14 K, 30124 kPa, m1 = 0.3043	860.11
293.14 K, 34814 kPa, m1 = 0.9305	955.31
293.14 K, 39888 kPa, m1 = 0.9305	958.57
293.14 K, 39952 kPa, m1 = 0.05681	828.27
293.15 K, 1045 kPa, m1 = 0.3043	838
293.15 K, 1235 kPa, m1 = 0.05681	800.05
293.15 K, 1523 kPa, m1 = 1.49	1007.63
293.15 K, 5024 kPa, m1 = 0.05681	803.22
293.15 K, 5032 kPa, m1 = 1.49	1010.62
293.15 K, 10123 kPa, m1 = 0.3043	845.43
293.15 K, 10214 kPa, m1 = 1.49	1014.92
293.15 K, 15624 kPa, m1 = 0.05681	811.63
293.15 K, 15624 kPa, m1 = 1.49	1019.23
293.15 K, 19877 kPa, m1 = 0.4384	872.96
293.15 K, 19914 kPa, m1 = 1.887	1075.41
293.15 K, 20035 kPa, m1 = 1.49	1022.63
293.15 K, 20124 kPa, m1 = 0.3043	853.06
293.15 K, 24809 kPa, m1 = 0.4384	876.51
293.15 K, 25007 kPa, m1 = 0.9305	948.56
293.15 K, 25014 kPa, m1 = 1.49	1026.32
293.15 K, 25232 kPa, m1 = 1.887	1079.35
293.15 K, 25412 kPa, m1 = 0.05681	818.77
293.15 K, 29867 kPa, m1 = 0.4384	880
293.15 K, 29915 kPa, m1 = 0.9305	952.01
293.15 K, 29924 kPa, m1 = 1.49	1029.82
293.15 K, 29995 kPa, m1 = 1.887	1082.75
293.15 K, 34624 kPa, m1 = 1.49	1033.04
293.15 K, 34775 kPa, m1 = 0.4384	883.24
293.15 K, 35015 kPa, m1 = 0.05681	825.19
293.15 K, 35078 kPa, m1 = 1.887	1086.23
293.15 K, 35624 kPa, m1 = 0.3043	863.74
293.15 K, 39932 kPa, m1 = 1.49	1036.53
293.16 K, 1293 kPa, m1 = 0.1696	817.98
293.16 K, 5239 kPa, m1 = 0.1696	821.27
293.16 K, 9897 kPa, m1 = 0.1696	825.03
293.16 K, 14684 kPa, m1 = 0.1696	828.75
293.16 K, 15201 kPa, m1 = 0.3043	849.37
293.16 K, 19951 kPa, m1 = 0.1696	832.68
293.16 K, 20035 kPa, m1 = 0.05681	814.92
293.16 K, 30348 kPa, m1 = 0.1696	839.91
293.16 K, 35296 kPa, m1 = 0.1696	843.12
293.16 K, 39385 kPa, m1 = 0.4384	886.15
293.16 K, 39747 kPa, m1 = 1.887	1089.29
293.16 K, 39967 kPa, m1 = 0.1696	846
293.16 K, 39985 kPa, m1 = 0.3043	866.49
293.17 K, 24971 kPa, m1 = 0.1696	836.26
293.17 K, 25845 kPa, m1 = 0.3043	857.16
293.17 K, 30025 kPa, m1 = 0.05681	821.93
298.14 K, 5021 kPa, m1 = 0.9305	928.53
298.14 K, 5024 kPa, m1 = 0.4384	857.08
298.14 K, 5036 kPa, m1 = 0.05681	799.14
298.14 K, 5036 kPa, m1 = 0.1696	816.98
298.14 K, 15024 kPa, m1 = 1.887	1066.84
298.14 K, 15106 kPa, m1 = 0.4384	865.31
298.14 K, 20014 kPa, m1 = 0.3043	849.06
298.14 K, 25032 kPa, m1 = 0.9305	944.53
298.14 K, 25035 kPa, m1 = 0.4384	872.78
298.14 K, 35024 kPa, m1 = 0.05681	821.61
298.14 K, 39921 kPa, m1 = 0.05681	824.72
298.15 K, 1024 kPa, m1 = 0.9305	925.02
298.15 K, 1024 kPa, m1 = 1.887	1055.01
298.15 K, 1025 kPa, m1 = 0.4384	853.63
298.15 K, 1201 kPa, m1 = 0.1696	813.7
298.15 K, 1324 kPa, m1 = 0.05681	795.94
298.15 K, 1324 kPa, m1 = 1.49	1002.7
298.15 K, 1542 kPa, m1 = 0.3043	834.12
298.15 K, 5214 kPa, m1 = 1.49	1006.13
298.15 K, 10024 kPa, m1 = 0.4384	861.25
298.15 K, 10025 kPa, m1 = 0.05681	803.29
298.15 K, 10025 kPa, m1 = 0.1696	821.11
298.15 K, 10025 kPa, m1 = 0.3043	841.24
298.15 K, 10032 kPa, m1 = 0.9305	932.79
298.15 K, 10035 kPa, m1 = 1.49	1010.24
298.15 K, 10035 kPa, m1 = 1.887	1062.75
298.15 K, 15621 kPa, m1 = 1.49	1014.82
298.15 K, 19956 kPa, m1 = 0.05681	811.06
298.15 K, 20004 kPa, m1 = 0.9305	940.76
298.15 K, 20014 kPa, m1 = 0.1696	828.87
298.15 K, 20031 kPa, m1 = 1.887	1070.82
298.15 K, 20035 kPa, m1 = 1.49	1018.3
298.15 K, 25621 kPa, m1 = 0.3043	853.17
298.15 K, 25621 kPa, m1 = 1.49	1022.52
298.15 K, 29914 kPa, m1 = 0.05681	818.2
298.15 K, 29942 kPa, m1 = 1.887	1078.29
298.15 K, 29954 kPa, m1 = 1.49	1025.66
298.15 K, 29986 kPa, m1 = 0.1696	835.96
298.15 K, 30041 kPa, m1 = 0.4384	876.29
298.15 K, 30065 kPa, m1 = 0.9305	948.14
298.15 K, 34625 kPa, m1 = 1.49	1028.92
298.15 K, 34985 kPa, m1 = 0.3043	859.62
298.15 K, 35104 kPa, m1 = 0.4384	879.69
298.15 K, 39924 kPa, m1 = 1.49	1032.44
298.15 K, 39974 kPa, m1 = 1.887	1085.32
298.15 K, 39985 kPa, m1 = 0.4384	882.8
298.15 K, 39985 kPa, m1 = 0.9305	954.77

Source: the NIST ThermoML archive (doi:10.1016/j.jct.2009.05.004)
